Data: patent US20110319464A1, “METHODS FOR TREATING BENIGN PROSTATIC HYPERPLASIA” (KISSEI PHARMACEUTICAL CO., LTD., priority 2007, published 2011)
Like-named read-outs stand apart in the source and are kept apart here.

Key:
[1] = Pharmacokinetic Study on Silodosin (Study 98364); assay type: in vivo; conditions: human, plasma, 4 mg; for concentration at 2 h: Day 7, 2 h; for concentration at 3 h: Day 7, 3 h; for concentration at 4 h: Day 7, 4 h; for concentration at 5 h: Day 7, 5 h; for concentration at 6 h: Day 7, 6 h; for concentration at 8 h: Day 7, 8 h; for concentration at 0 h: Day 7, 0 h (t0); for concentration at 0.5 h: Day 7, 0.5 h; for concentration at 1 h: Day 7, 1 h; for concentration at 12 h: Day 7, 12 h; for concentration at 24 h: Day 7, 24 h
Source text: The remaining two subjects in each dosing cohort received placebo.

symptoms of BPH [2] = test: Study A: 4 mg Silodosin Twice Daily (KMD-202), Japanese Phase 2 Study; assay type: in vivo, human; conditions: 4 mg twice daily
Source text: Patients were males who were at least 50 years of age and who had at least two of the following three variables classified as moderate, or at least one variable classified as severe: IPSS/AUASS, Qmax and QoL. In addition, the results for IPSS/AUASS for studies A, B, D and E are illustrated in FIGS. 3 to 6, respectively, and the results for Qmax for studies A, B, D and E are illustrated in FIGS. 7 to 10, respectively.

symptoms of BPH [3] = test: Study C: 4 mg or 8 mg Silodosin Once Daily (KMD-3213-US021-99), U.S. Phase 2 Study; assay type: in vivo, human; conditions: 4 mg once daily
Protocol: The 6-week stable dosing period was preceded by a 4-week placebo lead-in and a 2-week titration period. […] Male patients were selected who were at least 45 years of age with signs and symptoms of BPH (AUASS of 13 and maximum urine flow rate between 4 and 15 mL/sec). In addition, the results for IPSS/AUASS for studies A, B, D and E are illustrated in FIGS. 3 to 6, respectively, and the results for Qmax for studies A, B, D and E are illustrated in FIGS. 7 to 10, respectively.

[4] = 4 mg once daily 7 days, individual subjects, read-out: Blood Plasma Concentrations
[5] = male, 4 mg once daily 7 days, mean, read-out: Blood Plasma Concentrations
[6] = male, 4 mg twice daily 7 days (simulated from Table 1a), read-out: Estimated Blood Plasma Concentrations
[7] = Visit 3 (Day 29), Post-dose (2-6 hr), LOCF
[8] = Visit 4 (Day 36), Post-dose (2-6 hr), LOCF
[9] = Visit 5 (Day 43), Post-dose (2-6 hr), LOCF
[10] = Visit 6 (Day 64), Post-dose (2-6 hr), LOCF

C[C@H](Cc1cc2c(c(C(N)=O)c1)N(CCCO)CC2)NCCOc1ccccc1OCC(F)(F)F [Silodosin]
concentration at 2 h [1, 4]: 35.3 ng/mL | concentration at 3 h [1, 4]: 24.4 ng/mL | concentration at 4 h [1, 4]: 16.6 ng/mL | concentration at 5 h [1, 4]: 13.3 ng/mL | concentration at 6 h [1, 4]: 8.9 ng/mL | concentration at 8 h [1, 4]: 6.14 ng/mL | concentration at 0 h [1, 5]: 4.63 ng/mL | concentration at 0.5 h [1, 5]: 5.57 ng/mL | concentration at 1 h [1, 5]: 21.2 ng/mL | concentration at 2 h [1, 5]: 31.5 ng/mL | concentration at 3 h [1, 5]: 18.4 ng/mL | concentration at 4 h [1, 5]: 13 ng/mL | concentration at 5 h [1, 5]: 10.3 ng/mL | concentration at 6 h [1, 5]: 7.26 ng/mL | concentration at 8 h [1, 5]: 5.45 ng/mL | concentration at 12 h [1, 5]: 3.31 ng/mL | concentration at 24 h [1, 5]: 2.01 ng/mL | concentration at […] ([1]; male, 4 mg once daily 7 days, Day 7, […], mean, read-out: Blood Plasma Concentrations): 4.67 ng/mL | concentration at 0 h [1, 6]: 4.63 ng/mL | concentration at 0.5 h [1, 6]: 5.57 ng/mL | concentration at 1 h [1, 6]: 21.2 ng/mL | concentration at 2 h [1, 6]: 31.5 ng/mL | concentration at 3 h [1, 6]: 18.4 ng/mL | concentration at 4 h [1, 6]: 13 ng/mL | concentration at 5 h [1, 6]: 10.3 ng/mL | concentration at 6 h [1, 6]: 7.26 ng/mL | concentration at 8 h [1, 6]: 5.45 ng/mL | concentration at 12 h [1, 6]: 3.31 ng/mL | concentration at 12.25 h ([1]; male, 4 mg twice daily 7 days (simulated from Table 1a), Day 7, 12.25 h, read-out: Estimated Blood Plasma Concentrations): 4.67 ng/mL | concentration at 13 h ([1]; male, 4 mg twice daily 7 days (simulated from Table 1a), Day 7, 13 h, read-out: Estimated Blood Plasma Concentrations): 21.2 ng/mL | concentration at 14 h ([1]; male, 4 mg twice daily 7 days (simulated from Table 1a), Day 7, 14 h, read-out: Estimated Blood Plasma Concentrations): 31.5 ng/mL | concentration at 15 h ([1]; male, 4 mg twice daily 7 days (simulated from Table 1a), Day 7, 15 h, read-out: Estimated Blood Plasma Concentrations): 18.4 ng/mL | concentration at 16 h ([1]; male, 4 mg twice daily 7 days (simulated from Table 1a), Day 7, 16 h, read-out: Estimated Blood Plasma Concentrations): 13 ng/mL | concentration at 17 h ([1]; male, 4 mg twice daily 7 days (simulated from Table 1a), Day 7, 17 h, read-out: Estimated Blood Plasma Concentrations): 10.3 ng/mL | concentration at 18 h ([1]; male, 4 mg twice daily 7 days (simulated from Table 1a), Day 7, 18 h, read-out: Estimated Blood Plasma Concentrations): 4.63 ng/mL | concentration at 20 h ([1]; male, 4 mg twice daily 7 days (simulated from Table 1a), Day 7, 20 h, read-out: Estimated Blood Plasma Concentrations): 4.67 ng/mL | concentration at 24 h [1, 6]: 5.57 ng/mL | Incidence of Adverse Events: Dizziness (symptoms of BPH [2]): 2.2 % of patients | Incidence of Adverse Events: Orthostatic Hypotension (symptoms of BPH [2]): 1.1 % of patients | Incidence of Adverse Events: Syncope (symptoms of BPH [2]): 0 % of patients | IPSS/AUASS baseline value (symptoms of BPH [2]; Week 0): 18.7 | Maximum Flow Rate baseline value (symptoms of BPH [2]; Week 0): 10.70 mL/s | Mean Change From Baseline (CFB) in IPSS/AUASS (symptoms of BPH [2]; Week 2): −5.6 | Mean Change From Baseline (CFB) in IPSS/AUASS (symptoms of BPH [2]; Week 4): −6.6 | Mean Change From Baseline (CFB) in Maximum Flow Rate (symptoms of BPH [2]; Week 4): 1.31 mL/s | Q-max, Mean (SD) (symptoms of BPH [3]; [7]): 12.2 (4.4) ml/sec | Q-max, Mean change (SD) (symptoms of BPH [3]; [7]): 2.5 (3.6) ml/sec | Q-max, Mean (SD) (symptoms of BPH [3]; Visit 3 (baseline, Day 29), Pre-dose, LOCF): 9.7 (3.0) ml/sec | Total IPSS/AUASS Score, Mean (SD) (symptoms of BPH [3]; Visit 3 (baseline, Day 29), modified intent to treat (LOCF)): 19.7 (5.1) | Total IPSS/AUASS Score, Mean (SD) (symptoms of BPH [3]; Visit 4 (Day 36), LOCF): 17.3 (5.6) | Total IPSS/AUASS Score, Mean change (SD) (symptoms of BPH [3]; Visit 4 (Day 36), LOCF): −2.4 (4.0) | Q-max, Mean (SD) (symptoms of BPH [3]; [8]): 12.4 (4.7) ml/sec | Q-max, Mean change (SD) (symptoms of BPH [3]; [8]): 2.7 (4.4) ml/sec | Total IPSS/AUASS Score, Mean (SD) (symptoms of BPH [3]; Visit 5 (Day 43), LOCF): 15.5 (5.6) | Total IPSS/AUASS Score, Mean change (SD) (symptoms of BPH [3]; Visit 5 (Day 43), LOCF): −4.2 (4.5) | Q-max, Mean (SD) (symptoms of BPH [3]; [9]): 12.2 (4.7) ml/sec | Q-max, Mean change (SD) (symptoms of BPH [3]; [9]): 2.6 (4.2) ml/sec | Total IPSS/AUASS Score, Mean (SD) (symptoms of BPH [3]; Visit 6 (Day 64), LOCF): 14.6 (6.0) | Total IPSS/AUASS Score, Mean change (SD) (symptoms of BPH [3]; Visit 6 (Day 64), LOCF): −5.1 (5.1) | Q-max, Mean (SD) (symptoms of BPH [3]; [10]): 12.0 (4.3) ml/sec | Q-max, Mean change (SD) (symptoms of BPH [3]; [10]): 2.3 (4.1) ml/sec | Total IPSS/AUASS Score, Mean (SD) (symptoms of BPH [3]; Visit 7 (EOS, Day 84), LOCF): 13.9 (6.0) | Total IPSS/AUASS Score, Mean change (SD) (symptoms of BPH [3]; Visit 7 (EOS, Day 84), LOCF): −5.7 (5.5) | Q-max, Mean (SD) (symptoms of BPH [3]; Visit 7 (EOS, Day 84), Post-dose (2-6 hr), LOCF): 12.6 (4.4) ml/sec
